Measured values from US9120804B2, “8-substituted 2-amino-[1,2,4] triazolo [1, 5-A] pyrazines as Syk tryrosine kinase inhibitors and GCN2 serin kinase inhibitors” (Merck Patent GmbH, priority 2012, dated 2015).

Assays:
[1] = molecular target: GCN2 (Homo sapiens, UniProt Q9P2K8); test: GCN2 enzyme assay; format: biochemical
[2] = molecular target: T1, SYK (Homo sapiens, UniProt P43405); test: SYK flash plate assay (enzyme assay); format: biochemical
T1 construct: 2.5 nM SYK, 400 nM Biotin-Aha-Aha-KEDPDYEWPSAKK
How it was run: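 Radiometric Flashplate format: biotinylated peptide substrate (400 nM) and 33P-labelled ATP (10 μM) react with 2.5 nM enzyme for 1 hour at 30 °C in Hepes buffer, pH 7.5. After EDTA quench and washing, counts are taken; staurosporine defines non-specific signal, and IC50 values are derived.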

GCN2, sequence (Q9P2K8 whole entry): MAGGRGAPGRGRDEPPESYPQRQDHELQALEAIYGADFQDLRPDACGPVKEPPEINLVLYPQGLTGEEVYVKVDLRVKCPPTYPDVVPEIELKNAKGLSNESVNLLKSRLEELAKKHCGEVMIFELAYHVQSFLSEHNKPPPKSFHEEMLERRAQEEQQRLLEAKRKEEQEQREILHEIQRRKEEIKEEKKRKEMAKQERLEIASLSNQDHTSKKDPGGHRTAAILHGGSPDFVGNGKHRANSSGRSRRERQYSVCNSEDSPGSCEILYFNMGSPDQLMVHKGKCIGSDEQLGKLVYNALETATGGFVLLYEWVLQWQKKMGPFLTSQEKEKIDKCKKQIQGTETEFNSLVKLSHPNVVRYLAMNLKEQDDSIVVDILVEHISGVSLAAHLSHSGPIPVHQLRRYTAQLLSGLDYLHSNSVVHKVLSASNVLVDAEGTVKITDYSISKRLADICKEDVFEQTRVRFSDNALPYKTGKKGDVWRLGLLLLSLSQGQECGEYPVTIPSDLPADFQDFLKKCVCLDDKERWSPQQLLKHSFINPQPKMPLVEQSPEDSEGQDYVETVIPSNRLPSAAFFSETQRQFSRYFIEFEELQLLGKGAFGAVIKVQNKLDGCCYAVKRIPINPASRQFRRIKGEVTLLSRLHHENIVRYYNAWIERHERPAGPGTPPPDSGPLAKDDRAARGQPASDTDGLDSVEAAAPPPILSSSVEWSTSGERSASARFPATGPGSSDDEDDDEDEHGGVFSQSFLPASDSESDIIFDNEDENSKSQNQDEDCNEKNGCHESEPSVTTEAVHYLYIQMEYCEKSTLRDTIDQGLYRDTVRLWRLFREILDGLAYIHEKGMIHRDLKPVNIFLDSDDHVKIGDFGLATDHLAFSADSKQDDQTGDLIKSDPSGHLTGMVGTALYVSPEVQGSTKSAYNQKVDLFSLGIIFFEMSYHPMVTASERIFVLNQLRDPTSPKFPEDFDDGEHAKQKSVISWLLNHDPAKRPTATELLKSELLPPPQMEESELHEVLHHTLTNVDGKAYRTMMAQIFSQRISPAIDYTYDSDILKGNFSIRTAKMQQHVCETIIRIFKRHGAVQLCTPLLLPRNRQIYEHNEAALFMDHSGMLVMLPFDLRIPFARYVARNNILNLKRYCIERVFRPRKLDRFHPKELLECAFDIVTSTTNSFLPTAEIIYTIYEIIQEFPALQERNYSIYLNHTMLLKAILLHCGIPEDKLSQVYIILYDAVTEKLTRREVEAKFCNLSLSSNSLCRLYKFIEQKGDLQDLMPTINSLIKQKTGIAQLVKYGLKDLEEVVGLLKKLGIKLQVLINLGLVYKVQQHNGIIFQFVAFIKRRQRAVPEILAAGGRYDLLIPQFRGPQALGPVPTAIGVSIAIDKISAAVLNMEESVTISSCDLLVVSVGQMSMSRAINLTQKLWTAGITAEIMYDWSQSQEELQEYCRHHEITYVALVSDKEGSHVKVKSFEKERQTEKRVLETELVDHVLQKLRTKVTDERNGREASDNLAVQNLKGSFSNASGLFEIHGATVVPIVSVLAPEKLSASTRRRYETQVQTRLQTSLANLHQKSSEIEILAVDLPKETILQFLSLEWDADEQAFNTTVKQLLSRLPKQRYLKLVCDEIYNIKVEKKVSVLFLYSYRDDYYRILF

Row | SMILES | IC50 [1] [µM] | IC50 [2] [µM]
1 | Cn1cc(-c2nccn3nc(Nc4ccc5c(c4)NC(=O)C(C)(C)O5)nc23)cn1 [C80, 2,2-dimethyl-6-[8-(1-methyl-1H-pyrazol-4-yl)-[1,2,4]triazolo[1,5-a]pyrazin-2-ylamino]-4H-benzo[1,4]oxazin-3-one] | 3 to 50 | 0.1 to 0.3
2 | CC1(C)C(=O)Nc2cc(Nc3nc4c(N5CCC6(COC6)C5)nccn4n3)ccc21 [C81, 3,3-dimethyl-6-[8-(2-oxa-6-aza-spiro[3.4]oct-6-yl)-[1,2,4]triazolo[1,5-a]pyrazin-2-ylamino]-1,3-dihydro-indol-2-one] | 3 to 50 | < 0.1
3 | CC(C)C1(O)C(=O)Nc2cc(Nc3nc4c(-c5cnn(C)c5)nccn4n3)ccc21 (stereo not shown) [C82, 3-hydroxy-3-isopropyl-6-[8-(1-methyl-1H-pyrazol-4-yl)-[1,2,4]triazolo[1,5-a]pyrazin-2-ylamino]-1,3-dihydro-indol-2-one] | 0.3 to 3 | 0.1 to 0.3
4 | CC1(C)C(=O)Nc2cc(Nc3nc4c(N5CC[C@H](O)C5)nccn4n3)ccc21 [C83, 6-[8-((S)-3-hydroxy-pyrrolidin-1-yl)-[1,2,4]triazolo[1,5-a]pyrazin-2-ylamino]-3,3-dimethyl-1,3-dihydro-indol-2-one] | 3 to 50 | 0.1 to 0.3
5 | CC1(C)C(=O)Nc2cc(Nc3nc4c(N5CCC[C@H]5CO)nccn4n3)ccc21 [C84, 6-[8-((S)-2-hydroxymethyl-pyrrolidin-1-yl)-[1,2,4]triazolo[1,5-a]pyrazin-2-ylamino]-3,3-dimethyl-1,3-dihydro-indol-2-one] | 3 to 50 | 0.1 to 0.3
6 | CC1(C)C(=O)Nc2cc(Nc3nc4c(N[C@H]5CCCNC5)nccn4n3)ccc21 [C85, 3,3-dimethyl-6-[8-((S)-piperidin-3-ylamino)-[1,2,4]triazolo[1,5-a]pyrazin-2-ylamino]-1,3-dihydro-indol-2-one] | 3 to 50 | < 0.1
7 | CC1(C)C(=O)Nc2cc(Nc3nc4c(N5CC[C@H](N)C5)nccn4n3)ccc21 [C86, 6-[8-((S)-3-amino-pyrrolidin-1-yl)-[1,2,4]triazolo[1,5-a]pyrazin-2-ylamino]-3,3-dimethyl-1,3-dihydro-indol-2-one] | 3 to 50 | 0.3 to 3
8 | CN(c1nccn2nc(Nc3ccc4c(c3)NC(=O)C4(C)C)nc12)C1CCCNC1 (stereo not shown) [C88, 3,3-dimethyl-6-[8-(methyl-piperidin-3-yl-amino)-[1,2,4]triazolo[1,5-a]pyrazin-2-ylamino]-1,3-dihydro-indol-2-one] | 3 to 50 | 0.3 to 3
9 | CC1(C)C(=O)Nc2cc(Nc3nc4c(N5CC6(COC6)C5)nccn4n3)ccc21 [C91, 3,3-dimethyl-6-[8-(2-oxa-6-aza-spiro[3.3]hept-6-yl)-[1,2,4]triazolo[1,5-a]pyrazin-2-ylamino]-1,3-dihydro-indol-2-one] | 3 to 50 | < 0.1
10 | CC1(C)C(=O)Nc2cc(Nc3nc4c(N5CCC[C@@H](N)C5)nccn4n3)ccc21 [C94, 6-[8-((R)-3-amino-piperidin-1-yl)-[1,2,4]triazolo[1,5-a]pyrazin-2-ylamino]-3,3-dimethyl-1,3-dihydro-indol-2-one] | 3 to 50 | < 0.1
11 | CC1(C)C(=O)Nc2cc(Nc3nc4c(N5CCC6(CC(=O)NC6=O)C5)nccn4n3)ccc21 (stereo not shown) [C95, 7-[2-(3,3-dimethyl-2-oxo-2,3-dihydro-1H-indol-6-ylamino)-[1,2,4]triazolo[1,5-a]pyrazin-8-yl]-2,7-diaza-spiro[4.4]nonane-1,3-dione] | 3 to 50 | < 0.1
12 | CC1(C)C(=O)Nc2cc(Nc3nc4c(N5CCC[C@H](N)C5)nccn4n3)ccc21 [C99, 6-[8-((S)-3-amino-piperidin-1-yl)-[1,2,4]triazolo[1,5-a]pyrazin-2-ylamino]-3,3-dimethyl-1,3-dihydro-indol-2-one] | 3 to 50 | < 0.1
13 | CN(c1nccn2nc(Nc3ccc4c(c3)NC(=O)C4(C)C)nc12)C1CCOCC1 [C101, 3,3-dimethyl-6-{8-[methyl-(tetrahydro-pyran-4-yl)-amino]-[1,2,4]triazolo[1,5-a]pyrazin-2-ylamino}-1,3-dihydro-indol-2-one] | 3 to 50 | 0.1 to 0.3
14 | CC1(C)C(=O)Nc2cc(Nc3nc4c(N5CCc6[nH]cnc6C5)nccn4n3)ccc21 [C103, 3,3-dimethyl-6-[8-(1,4,6,7-tetrahydro-imidazo[4,5-c]pyridin-5-yl)-[1,2,4]triazolo[1,5-a]pyrazin-2-ylamino]-1,3-dihydro-indol-2-one] | 3 to 50 | < 0.1
15 | CC1(C)C(=O)Nc2cc(Nc3nc4c(N5CCC(N6CCNC6=O)CC5)nccn4n3)ccc21 [C104, 3,3-dimethyl-6-{8-[4-(2-oxo-imidazolidin-1-yl)-piperidin-1-yl]-[1,2,4]triazolo[1,5-a]pyrazin-2-ylamino}-1,3-dihydro-indol-2-one] | 3 to 50 | 0.3 to 3
16 | CC1(C)C(=O)Nc2cc(Nc3nc4c(N5CCC(F)(F)C5)nccn4n3)ccc21 [C105, 6-[8-(3,3-difluoro-pyrrolidin-1-yl)-[1,2,4]triazolo[1,5-a]pyrazin-2-ylamino]-3,3-dimethyl-1,3-dihydro-indol-2-one] | 3 to 50 | < 0.1
17 | CC1(C)C(=O)Nc2cc(Nc3nc4c(N5CCC6(C5)NC(=O)NC6=O)nccn4n3)ccc21 (stereo not shown) [C108, 7-[2-(3,3-dimethyl-2-oxo-2,3-dihydro-1H-indol-6-ylamino)-[1,2,4]triazolo[1,5-a]pyrazin-8-yl]-1,3,7-triaza-spiro[4.4]nonane-2,4-dione] | 3 to 50 | < 0.1
18 | Cn1cc(-c2nccn3nc(Nc4ccc5cc[nH]c5c4)nc23)cn1 [C111] | 0.3 to 3 | 0.1 to 0.3
19 | Cn1cc(-c2nccn3nc(Nc4ccc5c(C(=O)C(F)(F)F)c[nH]c5c4)nc23)cn1 [C112, 2,2,2-trifluoro-1-{6-[8-(1-methyl-1H-pyrazol-4-yl)-[1,2,4]triazolo[1,5-a]pyrazin-2-ylamino]-1H-indol-3-yl}-ethanone] | 3 to 50 | 0.3 to 3
20 | Cn1cc(-c2nccn3nc(Nc4ccc5c(C(C)(O)C(F)(F)F)c[nH]c5c4)nc23)cn1 (stereo not shown) [C113, 1,1,1-trifluoro-2-{6-[8-(1-methyl-1H-pyrazol-4-yl)-[1,2,4]triazolo[1,5-a]pyrazin-2-ylamino]-1H-indol-3-yl}-propan-2-ol] | 0.3 to 3 | < 0.1
21 | Cn1cc(-c2nccn3nc(Nc4ccc5c(c4)NC(=O)OC5(C)C)nc23)cn1 [C114, 4,4-dimethyl-7-[8-(1-methyl-1H-pyrazol-4-yl)-[1,2,4]triazolo[1,5-a]pyrazin-2-ylamino]-1,4-dihydro-benzo[d][1,3]oxazin-2-one] | 0.3 to 3 | < 0.1
22 | Cn1cc(-c2nccn3nc(Nc4ccc5c(c4)CS(=O)(=O)N5)nc23)cn1 [C115, (2,2-dioxo-2,3-dihydro-1H-2I6-benzo[c]isothiazol-5-yl)-[8-(1-methyl-1H-pyrazol-4-yl)-[1,2,4]triazolo[1,5-a]pyrazin-2-yl]-amine] | 3 to 50 | 0.1 to 0.3
23 | CN1c2ccc(Nc3nc4c(-c5cnn(C)c5)nccn4n3)cc2CS1(=O)=O [C117, (1-methyl-2,2-dioxo-2,3-dihydro-1H-2I6-benzo[c]isothiazol-5-yl)-[8-(1-methyl-1H-pyrazol-4-yl)-[1,2,4]triazolo[1,5-a]pyrazin-2-yl]-amine] | 0.3 to 3 | 0.1 to 0.3
24 | CC1(C)OC(=O)Nc2cc(Nc3nc4c(N5CCC6(C5)NC(=O)NC6=O)nccn4n3)ccc21 (stereo not shown) [C118, 7-[2-(4,4-dimethyl-2-oxo-1,4-dihydro-2H-benzo[d][1,3]oxazin-7-ylamino)-[1,2,4]triazolo[1,5-a]pyrazin-8-yl]-1,3,7-triaza-spiro[4.4]nonane-2,4-dione] | 3 to 50 | < 0.1
25 | CC(C)C1(C(C)C)OC(=O)Nc2cc(Nc3nc4c(-c5cnn(C)c5)nccn4n3)ccc21 [C119, 4,4-diisopropyl-7-[8-(1-methyl-1H-pyrazol-4-yl)-[1,2,4]triazolo[1,5-a]pyrazin-2-ylamino]-1,4-dihydro-benzo[d][1,3]oxazin-2-one] | 3 to 50 | 0.1 to 0.3
26 | CC1(C)OC(=O)Nc2cc(Nc3nc4c(-c5cccc6[nH]ncc56)nccn4n3)ccc21 [C120, 7-[8-(1H-indazol-4-yl)-[1,2,4]triazolo[1,5-a]pyrazin-2-ylamino]-4,4-dimethyl-1,4-dihydro-benzo[d][1,3]oxazin-2-one] | 0.3 to 3 | < 0.1
27 | CC(C)C(O)(c1n[nH]c2cc(Nc3nc4c(-c5cnn(C)c5)nccn4n3)ccc12)C(C)C [C141, 2,4-dimethyl-3-{6-[8-(1-methyl-1H-pyrazol-4-yl)-[1,2,4]triazolo[1,5-a]pyrazin-2-ylamino]-1H-indazol-3-yl}-pentan-3-ol] | 0.3 to 3 | < 0.1
28 | CC(C)C(O)c1n[nH]c2cc(Nc3nc4c(-c5cnn(C)c5)nccn4n3)ccc12 (stereo not shown) [C142, 2-methyl-1-{6-[8-(1-methyl-1H-pyrazol-4-yl)-[1,2,4]triazolo[1,5-a]pyrazin-2-ylamino]-1H-indazol-3-yl}-propan-1-ol] | 0.3 to 3 | 0.1 to 0.3
29 | Cn1cc(-c2nccn3nc(Nc4ccc5c(c4)NC(=O)CC5(C)C)nc23)cn1 [C144, 4,4-dimethyl-7-[8-(1-methyl-1H-pyrazol-4-yl)-[1,2,4]triazolo[1,5-a]pyrazin-2-ylamino]-3,4-dihydro-1H-quinolin-2-one] | 0.3 to 3 | < 0.1
